From patent US4190666A, “Anti-inflammatory 4,5-diarly-2-(substituted-thio)imidazoles and their corresponding sulfoxides and sulfones” (E. I. Du Pont de Nemours and Company, priority 1978, dated 1980)
Where two headings read alike, the source gives them in different places.

Columns and labels:
[1] = system: phenylquinone writhing syndrome; experiment: Phenylquinone writhing test (analgesic activity); type: in vivo, female white mice; settings: oral; for ED50: Mus musculus, 1% methylcellulose, Tables VIII and IX, read-out: ED50 (effective analgesic dose for 50% of the mice); for peak time: time of peak action
Experimental: Phenylquinone Writhing Test A standard procedure for detecting and comparing the analgesic activity of compounds in this series for which there is good correlation with human efficacy is the standard phenylquinone writhing test modified from Siegmund, et al., Proc. Soc. Exp. Biol. Med. 95, 729 (1957). […] Aqueous (0.01% phenyl-p-benzoquinone) phenylquinone was injected intraperitoneally at 24 minutes later using 0.20 ml per mouse. […] The effective analgesic dose for 50% of the mice (ED50) was calculated by the moving average method of Thompson, W. R., Bact. Rev. 11, 115-145 (1947); also time of peak action was determined for many of the compounds.

[2] = system: established adjuvant-induced arthritis in rats; experiment: Established adjuvant-induced arthritis in rats (therapeutic, paw volume); type: in vivo, Charles River Lewis male rats; settings: for ED50: Rattus norvegicus, read-out: Adjuvant Arthritis (ED50%)
[3] = po, established arthritis, 7 daily doses, ED50% decrease from control paw volume, Tables I-III
[4] = established arthritis, oral, 7 daily doses, ED50% decrease from control paw volume, Tables I-III

COc1ccc(-c2nc(SCC(F)(F)F)[nH]c2-c2ccc(OC)cc2)cc1 [Example 4, 4,5-bis-(4-Methoxyphenyl)-2-(2,2,2-trifluoroethylthio)imidazole]
ED50 [1]: 1.2 mg/kg | peak time [1]: 240 min | ED50 [2, 3]: 20 mg/kg

COc1ccc(-c2nc([S+]([O-])CC(F)(F)F)[nH]c2-c2ccc(OC)cc2)cc1 (stereo not drawn) [Example 5, 4,5-bis(4-Methoxyphenyl)-2-(2,2,2-trifluoroethylsulfinyl)-imidazole]
ED50 [1]: 0.86 mg/kg | peak time [1]: 60 min | ED50 [2, 3]: 10 mg/kg

COc1ccc(-c2nc(S(=O)(=O)CC(F)(F)F)[nH]c2-c2ccc(OC)cc2)cc1 [Example 6, 4,5-bis(4-Methoxyphenyl)-2-(2,2,2-trifluoroethylsulfonyl)-imidazole]
ED50 [1]: 0.58 mg/kg | peak time [1]: 60 min | ED50 [2, 3]: 3.8 mg/kg

O=S(=O)(c1nc(-c2ccccc2)c(-c2ccccc2)[nH]1)C(F)(F)C(F)F [Example 60, 4,5-diphenyl-2-(1,1,2,2-tetrafluoroethylsulfonyl)imidazole]
ED50 [1]: 0.48 mg/kg | peak time [1]: 120 min | ED50 [2, 3]: 0.13 mg/kg

COc1ccc(-c2nc(S(=O)(=O)C(F)(F)C(F)F)[nH]c2-c2ccc(OC)cc2)cc1 [Example 64, 4,5-bis(4-methoxyphenyl)-2-(1,1,2,2-tetrafluoroethylsulfonyl)imidazole]
ED50 [1]: 0.11 mg/kg | peak time [1]: 120 min | ED50 [2, 3]: 1.1 mg/kg

COc1ccc(-c2nc([S+]([O-])C(F)(F)C(F)F)[nH]c2-c2ccc(OC)cc2)cc1 (stereo not drawn) [Example 65]
ED50 [1]: 0.8 mg/kg | ED50 [2, 3]: 2.4 mg/kg

COc1ccc(-c2nc(S(=O)(=O)C(F)F)[nH]c2-c2ccc(OC)cc2)cc1 [Example 74]
ED50 [1]: 1.5 mg/kg | ED50 [2, 3]: 0.5 mg/kg

COc1ccc(-c2nc(S(=O)(=O)C(F)(F)C(F)F)[nH]c2-c2ccccc2)cc1 [Example 82]
ED50 [1]: 0.33 mg/kg | peak time [1]: 240 min | ED50 [2, 3]: 1.1 mg/kg

COc1ccc(-c2[nH]c(S(=O)(=O)C(F)(F)C(F)F)nc2-c2ccccc2Cl)cc1 [Example 83]
ED50 [1]: 0.56 mg/kg | peak time [1]: 60 min | ED50 [2, 3]: 7.2 mg/kg

COc1ccc(-c2nc(S(=O)(=O)C(F)(F)C(F)Br)[nH]c2-c2ccc(OC)cc2)cc1 (stereo not drawn) [Example 95]
ED50 [1]: 2.8 mg/kg | ED50 [2, 3]: 2.4 mg/kg

Cc1ccc(-c2nc(S(=O)(=O)C(F)(F)C(F)F)[nH]c2-c2ccccc2)cc1 [Example 96]
ED50 [2, 3]: 0.6 mg/kg

O=S(=O)(c1nc(-c2ccc3c(c2)OCO3)c(-c2ccc3c(c2)OCO3)[nH]1)C(F)(F)C(F)F [Example 97]
ED50 [2, 3]: 1 mg/kg

COc1ccc(-c2nc([S+]([O-])CC(C)=O)[nH]c2-c2ccc(OC)cc2)cc1 (stereo not drawn) [Example 98]
ED50 [2, 3]: 56 mg/kg

COc1ccc(-c2nc(S(=O)(=O)CS(C)(=O)=O)[nH]c2-c2ccc(OC)cc2)cc1 [Example 99]
ED50 [2, 3]: 54 mg/kg

COc1ccc(-c2nc(S(=O)(=O)CC(C)=O)[nH]c2-c2ccc(OC)cc2)cc1 [Example 100]
ED50 [2, 3]: 18 mg/kg

O=S(=O)(c1nc(-c2ccccc2)c(-c2ccccc2)[nH]1)C(F)(F)F [Example 103, 4,5-diphenyl-2-trifluoromethylsulfonylimidazole]
ED50 [2, 3]: 0.03 mg/kg

O=S(=O)(c1nc(-c2ccc(F)cc2)c(-c2ccc(F)cc2)[nH]1)C(F)(F)F [Example 104, 4,5-bis(p-fluorophenyl)-2-trifluoromethylsulfonylimidazole]
ED50 [2, 3]: 0.015 mg/kg

COc1ccc(-c2nc(SC(F)(F)F)[nH]c2-c2ccc(OC)cc2)cc1 [Example 107]
ED50 [2, 3]: 1.5 mg/kg

CCCCSc1nc(-c2ccc(F)cc2)c(-c2ccc(F)cc2)[nH]1 [Example 108]
percent (%) reduction in paw volume measured at the indicated dose ([2]; 10 mg./kg., oral): 77%

COc1ccc(-c2nc(SC(F)(F)F)[nH]c2-c2ccc(F)cc2)cc1 [Example 109]
ED50 [2, 3]: 2.7 mg/kg

Fc1ccc(-c2nc(SC(F)(F)C(F)(F)F)[nH]c2-c2ccc(F)cc2)cc1 [Example 110]
ED50 [2, 3]: 0.2 mg/kg

FC(F)(F)Sc1nc(-c2ccccc2)c(-c2ccc(Cl)c(Cl)c2)[nH]1 [Example 111]
ED50 [2, 3]: 7 mg/kg

CSc1nc(-c2ccccc2)c(-c2ccc(Cl)c(Cl)c2)[nH]1 [Example 112]
percent (%) reduction in paw volume measured at the indicated dose ([2]; 25 mg./kg., oral): 62%

CSc1nc(-c2ccccc2)c(-c2cccc(F)c2)[nH]1 [Example 113]
ED50 [2, 3]: 50 mg/kg

CSc1nc(-c2ccccc2)c(-c2cccc(Cl)c2)[nH]1 [Example 114]
percent (%) reduction in paw volume measured at the indicated dose ([2]; 50 mg./kg., oral): 45%

CCOc1ccc(-c2[nH]c(SC)nc2-c2ccccc2)cc1 [Example 115]
percent (%) reduction in paw volume measured at the indicated dose ([2]; 50 mg./kg., oral): 33%

COc1ccc(-c2nc(SC(F)(F)C(F)I)[nH]c2-c2ccc(OC)cc2)cc1 (stereo not drawn) [Example 116]
Adjuvant Arthritis (ED50%) [2, 4]: 30 mg/kg

COc1ccc(-c2[nH]c(SC(F)(F)C(F)F)nc2-c2ccc(F)cc2)cc1 [Example 117]
ED50 [2, 3]: 14 mg/kg

CCOc1ccc(-c2[nH]c(SC(F)(F)C(F)F)nc2-c2ccccc2)cc1 [Example 118]
percent (%) reduction in paw volume measured at the indicated dose ([2]; 10 mg./kg., oral): 32%

FC(F)C(F)(F)Sc1nc(-c2ccccc2)c(-c2ccc(Cl)c(Cl)c2)[nH]1 [Example 119]
ED50 [2, 3]: 3 mg/kg

Fc1cccc(-c2[nH]c(SC(F)(F)C(F)F)nc2-c2ccccc2)c1 [Example 120]
percent (%) reduction in paw volume measured at the indicated dose ([2]; 1.0 mg./kg., oral): 37%

FC(F)C(F)(F)Sc1nc(-c2ccccc2)c(-c2cccc(Cl)c2)[nH]1 [Example 121]
ED50 [2, 3]: 0.6 mg/kg

O=S(=O)(c1nc(-c2ccccc2)c(-c2ccccc2)[nH]1)C(F)(F)CF [Example 124]
ED50 [2, 3]: 0.15 mg/kg

COc1ccc(-c2nc(S(=O)(=O)C(F)(F)CF)[nH]c2-c2ccc(OC)cc2)cc1 [Example 125, 4,5-bis(4-methoxyphenyl)-2-(1,1,2-trifluoroethylsulfonyl)imidazole]
ED50 [1]: 0.25 mg/kg | peak time [1]: 160 min | ED50 [2, 3]: 5 mg/kg

O=S(=O)(c1nc(-c2ccccc2)c(-c2ccccc2)[nH]1)C(F)(F)C(F)Br (stereo not drawn) [Example 126]
ED50 [2, 3]: 0.85 mg/kg

COc1ccc(-c2nc(S(=O)(=O)C(F)(F)F)[nH]c2-c2ccc(OC)cc2)cc1 [Example 127, 4,5-bis(4-methoxyphenyl)-2-(trifluoromethylsulfonyl)imidazole]
ED50 [1]: 0.045 mg/kg | peak time [1]: 240 min | ED50 [2, 3]: 0.33 mg/kg

COc1ccc(-c2nc(S(=O)(=O)C(F)(F)C(F)I)[nH]c2-c2ccc(OC)cc2)cc1 (stereo not drawn) [Example 128]
ED50 [2, 3]: 3 mg/kg

CCCCS(=O)(=O)c1nc(-c2ccc(OC)cc2)c(-c2ccc(OC)cc2)[nH]1 [Example 129]
percent (%) reduction in paw volume measured at the indicated dose ([2]; 50 mg./kg., oral): 71%

COc1ccc(-c2nc(S(=O)(=O)C(F)(F)F)[nH]c2-c2ccc(F)cc2)cc1 [Example 130]
ED50 [1]: 0.1 mg/kg | ED50 [2, 3]: 1.4 mg/kg

Cc1ccc(-c2[nH]c(S(=O)(=O)C(F)(F)C(F)F)nc2-c2ccc(Cl)cc2)cc1 [Example 131]
percent (%) reduction in paw volume measured at the indicated dose ([2]; 10 mg./kg., oral): 36%

COc1ccc(-c2[nH]c(S(=O)(=O)C(F)(F)C(F)F)nc2-c2ccc(F)cc2)cc1 [Example 133]
ED50 [1]: 0.27 mg/kg | ED50 [2, 3]: 2.2 mg/kg

[O-][S+](c1nc(-c2ccc(F)cc2)c(-c2ccc(F)cc2)[nH]1)C(F)(F)C(F)F (stereo not drawn) [Example 134]
ED50 [2, 3]: 0.055 mg/kg

O=[N+]([O-])c1ccc(-c2nc(S(=O)(=O)C(F)(F)C(F)F)[nH]c2-c2ccc([N+](=O)[O-])cc2)cc1 [Example 135]
ED50 [2, 4]: 8.5 mg/kg

C[S+]([O-])c1nc(-c2ccc(F)cc2)c(-c2ccc(F)cc2)[nH]1 (stereo not drawn) [Example 136]
ED50 [2, 3]: 4 mg/kg

O=S(=O)(c1nc(-c2ccccc2)c(-c2ccc(Cl)c(Cl)c2)[nH]1)C(F)(F)C(F)F [Example 137, 4(or 5)-(3,4-dichlorophenyl)-5(or 4)-phenyl-2-(1,1,2,2-tetrafluoroethylsulfonyl)imidazole]
ED50 [2, 3]: 0.25 mg/kg

CCOc1ccc(-c2[nH]c(S(C)(=O)=O)nc2-c2ccccc2)cc1 [Example 138]
percent (%) reduction in paw volume measured at the indicated dose ([2]; 50 mg./kg., oral): 41%

C[S+]([O-])c1nc(-c2ccccc2)c(-c2cccc(Cl)c2)[nH]1 (stereo not drawn) [Example 139]
percent (%) reduction in paw volume measured at the indicated dose ([2]; 75 mg./kg., oral): 77%

CS(=O)(=O)c1nc(-c2ccccc2)c(-c2ccc(F)cc2)[nH]1 [Example 141]
percent (%) reduction in paw volume measured at the indicated dose ([2]; 9 mg./kg., oral): 26%

CCOc1ccc(-c2[nH]c(S(=O)(=O)C(F)(F)C(F)F)nc2-c2ccccc2)cc1 [Example 142]
ED50 [1]: 0.95 mg/kg | peak time [1]: 120 min | ED50 [2, 3]: 1.5 mg/kg

O=S(=O)(c1nc(-c2ccccc2)c(-c2cccc(F)c2)[nH]1)C(F)(F)C(F)F [Example 143]
ED50 [2, 3]: 0.06 mg/kg

O=S(=O)(c1nc(-c2ccccc2)c(-c2cccc(Cl)c2)[nH]1)C(F)(F)C(F)F [Example 144]
ED50 [2, 3]: 0.05 mg/kg

CS(=O)(=O)c1nc(-c2ccccc2)c(-c2ccc(Cl)c(Cl)c2)[nH]1 [Example 145]
percent (%) reduction in paw volume measured at the indicated dose ([2]; 50 mg./kg., oral): 59%

C[S+]([O-])c1nc(-c2ccccc2)c(-c2ccc(Cl)c(Cl)c2)[nH]1 (stereo not drawn) [Example 146]
ED50 [2, 3]: 50 mg/kg

CS(=O)(=O)c1nc(-c2ccccc2)c(-c2cccc(F)c2)[nH]1 [Example 147]
percent (%) reduction in paw volume measured at the indicated dose ([2]; 75 mg./kg., oral): 32%

C[S+]([O-])c1nc(-c2ccccc2)c(-c2cccc(F)c2)[nH]1 (stereo not drawn) [Example 148]
percent (%) reduction in paw volume measured at the indicated dose ([2]; 100 mg./kg., oral): 67%

CS(=O)(=O)c1nc(-c2ccccc2)c(-c2cccc(Cl)c2)[nH]1 [Example 149]
percent (%) reduction in paw volume measured at the indicated dose ([2]; 10 mg./kg., oral): 55%
